Laboratory results from patent US20110053897A1 (IRM LLC, priority 2009, published 2011).
Like-named read-outs stand apart in the source and are kept apart here.

Legend:
[1] = Pharmacokinetic parameters (bioavailability, metabolic stability, half life, compound exposure); settings: qualitative statement, values not given
Syk kinase [2] = molecular target: T1, Syk kinase (Homo sapiens, UniProt P43405); test: Syk kinase inhibition, Caliper LabChip off-chip mobility-shift kinase assay; assay type: biochemical; settings: read-out: Syk Enzyme IC50
T1 construct: purchased
Method in brief: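 Purified Syk pre-incubated 15 min with compound in 100 mM HEPES pH 7.5, 1 mM DTT, 10 mM MgCl2 or MnCl2, 0.002% Brij-35, then 1.5 μM fluorescein peptide and ATP at apparent KM added; 1–1.5 h at room temperature, 4% DMSO, EDTA stop. Microfluidic mobility-shift product/substrate conversion gave % inhibition; IC50 from 12-point series (10–0.00003 μM) by 4-parameter fit.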

Syk kinase [3] = molecular target: T1, Syk kinase; test: Selectivity for Syk kinase over other kinases, receptors, enzymes and transporters; assay type: biochemical; settings: qualitative statement, values not given

IC50 (Syk kinase [2]; Caliper LabChip assay)	other results	SMILES
7 nM	pharmacokinetic parameters, such as bioavailablity, enhanced metabolic stability, half life and compound exposure [1]: improved pharmacokinetic parameters	CC(C)(C)Nc1nc(Nc2cnccn2)cc2ccn(C[C@@H](O)CO)c(=O)c12 [compound 668, (R)-8-(tert-butylamino)-2-(2,3-dihydroxypropyl)-6-(pyrazin-2-ylamino)-2,7-naphthyridin-1(2H)-one]
57 nM	selectivity for Syk kinase over other kinases, as well as other receptors, enzymes and transporters (Syk kinase [3]): improved Syk selectivity	CC(C)(C)Nc1nc(Nc2cc(C(C)(C)O)ncn2)cc2ccn(C3COC3)c(=O)c12 [compound 734]
–	IC50 (Syk kinase [2]): 2080 nM	Cc1cc(Nc2nc(Nc3ccc(Cl)cn3)cc3cc[nH]c(=O)c23)ccc1C1CCN(C2CC2)CC1 [compound 250]
2410 nM	–	COCCCN(C)S(=O)(=O)c1ccc(Nc2nc(Nc3cc(C)ccn3)cc3ccn(C)c(=O)c23)cc1 [compound 651]
164 nM	–	CC(C)(C)Nc1nc(Nc2cnccn2)cc2ccn(Cc3cccnc3)c(=O)c12 [compound 1020]
56 nM	–	CC(C)(O)COc1cc(Nc2cc3ccn(CCO)c(=O)c3c(NC(C)(C)C)n2)ncn1 [compound 641]
–	IC50 (Syk kinase [2]): 398 nM	CCN1CCN(CCc2ccc(Nc3nc(Nc4ccc(Cl)cn4)cc4cc[nH]c(=O)c34)cc2)CC1 [compound 536]
–	IC50 (Syk kinase [2]): 75 nM	COCC(=O)N1CCC(c2ccc(Nc3nc(-c4cncc(OC)n4)cc4cc[nH]c(=O)c34)cc2C)CC1 [compound 49]
50 nM	–	COc1cc(Nc2cc3ccn(CCO)c(=O)c3c(NC(C)(C)C)n2)ncn1 [compound 735]
866 nM	–	CC(C)(C)Nc1nc(Nc2cc(C(=O)N3CCCC(CO)C3)ccn2)cc2ccn(CCO)c(=O)c12 (stereo not drawn) [compound 688]
247 nM	–	CC(C)Nc1nc(Nc2cc(-c3cccnc3)ccn2)cc2cc[nH]c(=O)c12 [compound 1045]
28 nM	–	CC(C)(C)Nc1nc(-c2cnc(N)nc2)cc2c(Cl)cn(CCO)c(=O)c12 [compound 666]
–	IC50 (Syk kinase [2]): 350 nM	Cc1cc(Nc2nc(-c3ccc(N(C)C)nc3)cc3cc[nH]c(=O)c23)ccc1C1CCN(C2CC2)CC1 [compound 218]
117 nM	–	Cc1ccnc(Nc2cc3ccn(CCO)c(=O)c3c(NCC(F)F)n2)c1 [compound 815]
216 nM	–	CC(C)(C)Nc1nc(Nc2cc(CNC3COC3)ccn2)cc2ccn(CCO)c(=O)c12 [compound 605]
22 nM	–	O=c1c2c(NCC(F)(F)F)nc(Nc3cnccn3)cc2ccn1CCO [compound 825]
–	IC50 (Syk kinase [2]): 5680 nM	Cc1ccnc(Nc2cc3cc[nH]c(=O)c3c(NCc3ccccc3)n2)c1 [compound 591]
–	IC50 (Syk kinase [2]): 1620 nM	CCN(CC)CCNC(=O)c1ccc(Nc2nc(Nc3cnccn3)cc3ccn(C)c(=O)c23)cc1 [compound 338]
–	IC50 (Syk kinase [2]): 26 nM	CN1CC(c2ccc(Nc3nc(-c4cncnc4)cc4cc[nH]c(=O)c34)cc2)C1 [compound 138]
11 nM	–	CC1(Nc2nc(Nc3cnccn3)cc3ccn(CCO)c(=O)c23)CCC1 [compound 896]
328 nM	–	CC(C)(C)Nc1nc(Nc2ccc(F)cn2)cc2ccn(CCO)c(=O)c12 [compound 696]
231 nM	–	CC(C)(C)Nc1nc(Nc2cc(C(F)(F)F)ccn2)cc2ccn(CCO)c(=O)c12 [compound 901]
131 nM	–	CC(C)(C)Nc1nc(Nc2cc(C(C)(C)O)ccn2)cc2ccn(CCO)c(=O)c12 [compound 698, 8-(tert-butylamino)-2-(2-hydroxyethyl)-6-(4-(2-hydroxypropan-2-yl)pyridin-2-ylamino)-2,7-naphthyridin-1(2H)-one]
452 nM	–	CC(C)(C)Nc1nc(Nc2cc(C3CCCCC3)ncn2)cc2ccn(CCO)c(=O)c12 [compound 625]
208 nM	–	CC(C)(C)Nc1nc(Nc2ccc(C#N)cn2)cc2ccn(CCO)c(=O)c12 [compound 697]
